Target: T1, Kir3.1/Kir3.4 (Rattus norvegicus, UniProt P48548+P63251)
T1 sequence (P63251 whole entry): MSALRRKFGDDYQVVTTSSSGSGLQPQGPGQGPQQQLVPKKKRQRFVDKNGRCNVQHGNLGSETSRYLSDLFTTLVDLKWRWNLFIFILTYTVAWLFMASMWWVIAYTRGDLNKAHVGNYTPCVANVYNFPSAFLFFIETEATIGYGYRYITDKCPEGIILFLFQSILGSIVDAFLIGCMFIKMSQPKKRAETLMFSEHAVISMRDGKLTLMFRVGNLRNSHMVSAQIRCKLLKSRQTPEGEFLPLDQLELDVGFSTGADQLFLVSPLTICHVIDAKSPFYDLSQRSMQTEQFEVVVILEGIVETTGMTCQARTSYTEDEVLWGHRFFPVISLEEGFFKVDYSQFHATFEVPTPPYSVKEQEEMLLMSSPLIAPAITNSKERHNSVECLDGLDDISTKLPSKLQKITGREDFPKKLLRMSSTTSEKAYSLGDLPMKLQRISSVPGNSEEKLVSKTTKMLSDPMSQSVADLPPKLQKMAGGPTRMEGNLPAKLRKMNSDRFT
T1 sequence (P48548 whole entry): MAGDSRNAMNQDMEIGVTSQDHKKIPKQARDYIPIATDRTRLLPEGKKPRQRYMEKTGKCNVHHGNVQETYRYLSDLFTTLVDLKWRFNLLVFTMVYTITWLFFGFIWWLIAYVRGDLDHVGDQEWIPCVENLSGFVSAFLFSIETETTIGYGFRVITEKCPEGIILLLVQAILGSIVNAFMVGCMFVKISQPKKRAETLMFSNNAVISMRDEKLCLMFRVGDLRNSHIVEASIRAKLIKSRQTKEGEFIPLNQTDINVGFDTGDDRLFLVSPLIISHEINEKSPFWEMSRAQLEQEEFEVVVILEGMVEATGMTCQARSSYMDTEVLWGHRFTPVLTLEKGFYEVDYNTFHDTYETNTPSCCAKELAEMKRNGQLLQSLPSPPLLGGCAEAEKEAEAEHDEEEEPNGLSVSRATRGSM
Experiment: Inhibition of rat Kir3.1/Kir3.4 expressed in HEK293 cells assessed as reduction in depolarizing voltage step-induced recombinant G-protein activated inward rectifier current by whole cell patch clamp assay
Assay type: cell-based

IC50 [µM] | Structure (SMILES)
< 0.5 | CNC(=O)c1sc2[nH]nc(N3CCC(COCCN4CCCC4)CC3)c2c1-c1ccccc1
0.5 | CN(C)C(=O)c1sc2[nH]nc(N3CCC(COCCN4CCCC4)CC3)c2c1-c1ccccc1
0.5 | CN(C)C(=O)c1sc2c(c(N3CCC(COCCN4CCCC4)CC3)nn2C)c1-c1ccccc1
< 0.5 | CC(C)NC(=O)c1sc2[nH]nc(N3CCC(COCCN4CCCC4)CC3)c2c1-c1ccccc1
< 0.5 | N#Cc1sc2[nH]nc(N3CCC(COCCN4CCCC4)CC3)c2c1-c1ccccc1
< 0.5 | Brc1sc2[nH]nc(N3CC4CC3CC4OCCN3CCCC3)c2c1-c1ccccc1 (stereo not given)
< 0.5 | c1ccc(-c2csc3[nH]nc(N4CCC(COCCN5CCCC5)C4)c23)cc1 (stereo not given)
< 0.5 | Cn1nc(N2CCC(COCCN3CCCC3)CC2)c2c(-c3ccccc3)csc21
< 0.5 | CC(=O)n1nc(N2CCC(COCCN3CCCC3)CC2)c2c(-c3ccccc3)csc21
< 0.5 | CS(=O)(=O)n1nc(N2CCC(COCCN3CCCC3)CC2)c2c(-c3ccccc3)csc21
< 0.5 | c1ccc(-c2csc3[nH]nc(N4CCCC(COCCN5CCCC5)C4)c23)cc1 (stereo not given)
< 0.5 | c1ccc(-c2csc3[nH]nc(N4CCC(COCCN5CCCC5)CC4)c23)cc1

The next lines start with the molecule.

Structure (SMILES) | IC50 [µM]
c1ccc(-c2csc3[nH]nc(N4C5CCC4CC(COCCN4CCCC4)C5)c23)cc1 (stereo not given) | < 0.5
c1ccc(-c2csc3[nH]nc(N4C5CCC4CC(NC4CCC4)C5)c23)cc1 (stereo not given) | < 0.5
c1ccc(-c2csc3[nH]nc(N4CC5CC4CC5OCCN4CCCC4)c23)cc1 (stereo not given) | < 0.5
CC(=O)n1nc(N2CC3CC2CC3OCCN2CCCC2)c2c(-c3ccccc3)csc21 (stereo not given) | < 0.5
CC(=O)n1nc(N2CCC(COCCN3CCCC3)C2)c2c(-c3ccccc3)csc21 (stereo not given) | < 0.5
CC(C)NC1CC2CCC(C1)N2c1n[nH]c2scc(-c3ccccc3)c12 (stereo not given) | 0.5
c1ccc(-c2csc3[nH]nc(N4C5CCC4CC(OCCN4CCCC4)C5)c23)cc1 (stereo not given) | < 0.5
c1ccc(-c2csc3[nH]nc(N4C5CCC4CC(N4CCC4)C5)c23)cc1 (stereo not given) | 0.5
CS(=O)(=O)n1nc(N2CC3CC2CC3OCCN2CCCC2)c2c(-c3ccc(F)cc3)csc21 (stereo not given) | < 0.5
CC(=O)n1nc(N2C3CCC2CC(OCCN2CCCC2)C3)c2c(-c3ccccc3)csc21 (stereo not given) | < 0.5
Fc1ccc(-c2csc3[nH]nc(N4CC5CC4CC5OCCN4CCCC4)c23)cc1 (stereo not given) | < 0.5
CC(=O)n1nc(N2CCCC(COCCN3CCCC3)C2)c2c(-c3ccccc3)csc21 (stereo not given) | < 0.5
CC(=O)n1nc(N2CC3CC2CC3OCCN2CCCC2)c2c(-c3ccc(F)cc3)csc21 (stereo not given) | < 0.5

Reference: ChEMBL document CHEMBL3714712, “Thieno [2,3-c]pyrazoles for use as potassium channel inhibitors” (2013)
